We go through six compounds from patent US20090054450A1, “COMPOSITIONS AND METHODS OF USE FOR TREATING OR PREVENTING LIPID RELATED DISORDERS” (IRONWOOD PHARMACEUTICALS, INC., priority 2007, published 2009).

Structures are written as SMILES.

Series [1] is described as follows: Pharmacokinetics in rat high fat high cholesterol diet model (LC/MS-MS). The class given is in vivo. The following applies: oral administration, vs compound 121 (resveratrol). As to the method: Similarly, when tested in this assay, Compound 5A [(E)-4-(3,5-dimethoxystyryl)phenyl 2-(4-(4-chlorobenzoyl)phenoxy)-2-methylpropanoate] was associated with decreased LDL and VLDL, no change in blood glucose, and increased HDL. Graphical depictions showing the LDL, VLDL and HDL analyses for compounds 10A and 5A are shown in FIGS. 1, 2, and 3 respectively. Compound 13 (4-(nitrooxy)butyl 2-(4-(4-chlorobenzoyl)phenoxy)-2-methylpropanoate) was also tested in this assay. FIGS. 4-6 are graphs showing that Compound 13 decreased LDL (FIG. 4) and VLDL (FIG. 5) and increased HDL (FIG. 6). Fenofibrate was also tested in this assay at 2, 6.8 and 20.5 mg/kg (FIGS. 4-6) which are equimolar equivalents (for the fenofibric acid moiety) of Compound 10A dosed at […]. Similar untested dose equivalent amounts to Compound 13 at 3, 10, and 30 mg/kg would be 2.5, 8.3, and 24.8 mg/kg of fenofibrate. […]
(§1) Various pharmacokinetic parameters were calculated by collecting plasma samples from animals dosed with a test compound and analyzed by LC/MS-MS. […] Concentrations were determined by relative responses to an internal standard and calculated based on a standard concentration curve of the test compound. […] Oral Bioavailability (Fn) was calculated using the equation: F=(AUCoral/AUCIV)*DoseIV.Doseoral). Cmax and Tmax are determined by visual inspection of the oral concentration curve. […]

The nature of series [2]: Pharmacokinetic profile in blood plasma of ob/ob mice (LC/MS-MS). The class given is in vivo, mouse. As to the method: The increased expression of plasma lipids in ob/ob mice make them a useful model for the study of drugs designed to lower cholesterol. In these experiments animals (n=10 per group) were fed a high fat chow (HF; 60% fat,) for one week before test compound administration and continued on this diet for the duration of the experiment. Animals received either vehicle only (PEG 400), or test compound (Compound 121 (resveratrol) at 43 or 1000 mg/kg, Compound 10A at 30 or 100 mg/kg, or fenofibrate at 68 mg/kg) perorally once daily for a total of three weeks. Blood samples were collected weekly for the determination of fasting glucose levels (One touch Ultra, LifeScan Inc). Blood serum was analyzed after three weeks using Vertical Auto Profile (VAP; Atherotech, Inc., Birmingham, Ala.) analysis similar to as described in Kulkami (2006) Clin Lab Med 26:787-802. […]
as §1

The subject of series [3] is rat high fat, high cholesterol diet model. Description: Rat High Fat, High Cholesterol Diet Model. The following applies: HFHC diet rats; for HDL / LDL / VLDL: once daily perorally for seven days, serum VAP analysis, compound 13 at 3, 10, 30 mg/kg; for HDL / LDL / VLDL / blood glucose: compound 10A at 3, 10, or 30 mg/kg, compound 5A at 100 mg/kg; for blood glucose: seven days dosing. The series is classed as in vivo. On the procedure: Fibrate and statin derivatives, alone and in combination, are tested for effects on cholesterol and lipid profiles in a rat high fat diet model for example as described in Ghibaudi et al. (2002) Obes Res 10:956-63, Ricci and Levin (2003) Am J Physiol Regul Integr Comp Physiol 285:R610-8, and Gao et al. (2002) 936:87-90. Alternatively, animals are fed either a normal diet or a chow supplemented with added fat and/or cholesterol as described in Krause et al (1994) Pharm Res Vol 29, No. 4, Nishina (1993) J of Lipid Res vol 43. and Gajda et al. (2007) Animal Lab News. Based on the specific chows used in these reports, we fed animals a diet consisting of 40% fat, 1% cholesterol, and 0.5% cholic acid (catalog #D01061201, Research Diets, New Brunswick, N.J. 08901). After at least a week on this diet, animals (6-8/group) are dosed once daily perorally with 300 uL test compounds in PEG 400 or suitable vehicle. Groups are dosed for at least one week before whole blood samples are taken for analysis. Blood serum is analyzed using Vertical Auto Profile (VAP; Atherotech, Inc., Birmingham, Ala.) analysis similar to as described in Kulkami (2006) Clin Lab Med 26:787-802.
Similarly, when tested in this assay, Compound 5A [(E)-4-(3,5-dimethoxystyryl)phenyl 2-(4-(4-chlorobenzoyl)phenoxy)-2-methylpropanoate] was associated with decreased LDL and VLDL, no change in blood glucose, and increased HDL. Graphical depictions showing the LDL, VLDL and HDL analyses for compounds 10A and 5A are shown in FIGS. 1, 2, and 3 respectively. Compound 13 (4-(nitrooxy)butyl 2-(4-(4-chlorobenzoyl)phenoxy)-2-methylpropanoate) was also tested in this assay. FIGS. 4-6 are graphs showing that Compound 13 decreased LDL (FIG. 4) and VLDL (FIG. 5) and increased HDL (FIG. 6). Fenofibrate was also tested in this assay at 2, 6.8 and 20.5 mg/kg (FIGS. 4-6) which are equimolar equivalents (for the fenofibric acid moiety) of Compound 10A dosed at […]. Similar untested dose equivalent amounts to Compound 13 at 3, 10, and 30 mg/kg would be 2.5, 8.3, and 24.8 mg/kg of fenofibrate. In these experiments animals (n=6 per group) were fed either a normal chow (chow) or high fat high cholesterol chow (HFHC; 40% fat, 1% cholesterol, 0.5% cholic acid) diet for one week before test compound administration. Animals received either no test compound (“naïve”), vehicle only (PEG 400) or test compound (compound 10A at 3, 10, or 30 mg/kg, compound 5A at 100 mg/kg, compound 13 at 3, 10, 30 mg/kg, or fenofibrate at 2, 6.8, or 20.5 mg/kg) for seven days before whole blood samples were taken for analysis. […] Compound 8A may be useful for another contemplated use described herein however.

For series [4], the system named is ob/ob mice. In words: Obese (ob/ob) Mouse Model, blood glucose. The following applies: ob/ob mice on high fat chow, perorally once daily for three weeks, days 7, 14, 21; Compound 10A 30 and 100 mg/kg, Compound 121 43 or 1000 mg/kg, fenofibrate 68 mg/kg. The class given is in vivo. On the procedure: The increased expression of plasma lipids in ob/ob mice make them a useful model for the study of drugs designed to lower cholesterol. In these experiments animals (n=10 per group) were fed a high fat chow (HF; 60% fat,) for one week before test compound administration and continued on this diet for the duration of the experiment. Animals received either vehicle only (PEG 400), or test compound (Compound 121 (resveratrol) at 43 or 1000 mg/kg, Compound 10A at 30 or 100 mg/kg, or fenofibrate at 68 mg/kg) perorally once daily for a total of three weeks. Blood samples were collected weekly for the determination of fasting glucose levels (One touch Ultra, LifeScan Inc). Blood serum was analyzed after three weeks using Vertical Auto Profile (VAP; Atherotech, Inc., Birmingham, Ala.) analysis similar to as described in Kulkami (2006) Clin Lab Med 26:787-802. […] 43 mg/kg of compound 121 (resveratrol) and 68 mg/kg of fenofibrate are the equimolar equivalents to the amounts of resveratrol and fenofibric acid moieties in 100 mg/kg of Compound 10A. […] FIG. 8 is a pharmacokinetic profile (using the methodologies as described herein) analyzing fenofibric acid levels in blood plasma of ob/ob mice dosed with either 68 mg/kg of fenofibrate, or 30 mg/kg or 100 mg/kg of Compound 10A.

For series [5], the system named is ob/ob mice. The following applies: fenofibrate 100 mg/kg; McCarmona et al. (2005); cited from earlier work.

In the case of `CC(C)(Oc1ccc(C(=O)c2ccc(Cl)cc2)cc1)C(=O)Oc1ccc(/C=C/c2cc(O)cc(O)c2)cc1.Cl` [Compound 10A, (E)-4-(3,5-dihydroxystyryl)phenyl 2-(4-(4-chlorobenzoyl)phenoxy)-2-methylpropanoate], in series [1], the resveratrol pharmacokinetic profile entry is on record as “different resveratrol pharmacokinetic profile”. Further, the “fenofibric acid exposure in blood plasma” value in series [2] (ob/ob mice, 30 mg/kg Compound 10A as compared to 68 mg/kg fenofibrate) is “less fenofibric acid exposure”. In addition, the resveratrol pharmacokinetic profile entry in series [2] (obese mouse model, oral administration, 100 mg/kg Compound 10A vs 43 mg/kg compound 121 (resveratrol)) is “different resveratrol pharmacokinetic profile”. In series [3], the HDL entry was “increased”, the LDL result is “dose related decreases”, the VLDL result is on record as “dose related decreases” and the blood glucose result is “decreased”. The “blood glucose (fasting), change compared to day 0” value (“blood glucose (fasting), change” for short) with ob/ob mice [4] is “statistically significant (when compared to day 0) decreases”.

For the compound `CC(C)(Oc1ccc(C(=O)c2ccc(Cl)cc2)cc1)C(=O)OCCCCO[N+](=O)[O-]` [Compound 13, 4-(nitrooxy)butyl 2-(4-(4-chlorobenzoyl)phenoxy)-2-methylpropanoate], in series [3], the HDL result is reported as “increased”, the LDL entry is on record as “decreased” and the VLDL result is “decreased”.

`CC(=O)Oc1cc(/C=C/c2ccc(OC(=O)C(C)(C)Oc3ccc(C(=O)c4ccc(Cl)cc4)cc3)cc2)cc(OC(C)=O)c1` [Compound 8A, (E)-5-(4-(2-(4-(4-chlorobenzoyl)phenoxy)-2-methylpropanoyloxy)styryl)-1,3-phenylene diacetate]: the melting point fell in the range of 112 to 113 °C. In addition, the “efficacy in rat high fat, high cholesterol diet model” value in series [3] is given as “does not show any efficacy”.

As to `CC(C)OC(=O)C(C)(C)Oc1ccc(C(=O)c2ccc(Cl)cc2)cc1` [fenofibrate, 2-[4-(4-chlorobenzoyl)phenoxy]-2-methyl-propanoic acid, 1-methylethyl ester], in the series with ob/ob mice [5], the “blood glucose in ob/ob mice” value is given as “shown to decrease blood glucose”. In addition, the “blood glucose (fasting), change” value in the series with ob/ob mice [4] is given as “neither Compound 121 (resveratrol; dosed at 43 or 1000 mg/kg) or fenofibrate (dosed at 68 mg/kg) resulted in statistically significant changes”.

Consider `COc1cc(/C=C/c2ccc(OC(=O)C(C)(C)Oc3ccc(C(=O)c4ccc(Cl)cc4)cc3)cc2)cc(OC)c1` [Compound 5A, (E)-4-(3,5-dimethoxystyryl)phenyl 2-(4-(4-chlorobenzoyl)phenoxy)-2-methylpropanoate], for which, in series [3], the HDL entry was “increased”, the LDL result is listed as “decreased”, the VLDL entry is given as “decreased” and the blood glucose result is “no change”.

For the compound `Oc1ccc(/C=C/c2cc(O)cc(O)c2)cc1` [Compound 121, (E)-5-(4-hydroxystyryl)benzene-1,3-diol], in the series with ob/ob mice [4], the “blood glucose (fasting), change” value is given as “neither Compound 121 (resveratrol; dosed at 43 or 1000 mg/kg) or fenofibrate (dosed at 68 mg/kg) resulted in statistically significant changes”.
